Each compound was assayed on glycolysis in HT1080 cells (assay: Glycolysis assay: oligomycin plus compound, cellular ATP by Cell Titer Glo). Conditions: Homo sapiens, HT-1080, 1 h, 10 μM oligomycin, one hour, class symbols.
Format: cell-based
Description: Therefore, an assay was developed that utilizes the combination of the glucose uptake inhibitors disclosed herein with oligomycin, a well-characterized inhibitor of ATP synthase. Because oligomycin inhibits ATP derived from oxidative phosphorylation, any remaining ATP production is derived from glycolysis. By reading out cellular ATP levels using the Promega Cell Titer Glo kit, the extent of glycolysis inhibition by the glucose uptake inhibitors disclosed herein can be assessed. […] Utilizing this experimental set-up, the IC50 of glycolysis inhibition for each compound can be determined.
Determination of Glucose Uptake/GLUT Activity (Glycolysis Assay):
HT1080 cells (as well as other cell types) were plated to confluency in 96-well plates. Cells were exposed to the combination of 10 μM Oligomycin (to block mitochondrial-derived ATP) and the glucose uptake inhibitors disclosed herein for one-hour, after which glycolytically-derived ATP was measured with the Cell Titer-Glo assay kit (Promega). Dose-response curves of the glucose uptake inhibitors disclosed herein were used to determine the IC50 for GLUT activity.
`CC(C)(C)CNC(=O)COc1cccc(-c2nc3c(c(Nc4ccc(-c5cn[nH]c5)cc4)n2)COC3)c1` [Example 79, 2-(3-(4-((4-(1H-pyrazol-4-yl)phenyl)amino)-5,7-dihydrofuro[3,4-d]pyrimidin-2-yl)phenoxy)-N-neopentylacetamide] was tested, and the IC50 was 10 to 100 nM.
With `COc1cncc(C(=O)Nc2cccc(-c3nc4c(c(Nc5ccc(-c6cn[nH]c6)cc5)n3)COC4)c2)c1` [Example 80, N-(3-(4-((4-(1H-pyrazol-4-yl)phenyl)amino)-5,7-dihydrofuro[3,4-d]pyrimidin-2-yl)phenyl)-5-methoxynicotinamide] the IC50 was 10 to 100 nM.
`O=C(COc1cccc(-c2nc3c(c(Nc4ccc(-c5cn[nH]c5)cc4)n2)COC3)c1)NC1CC(F)(F)C1` [Example 82, 2-(3-(4-((4-(1H-pyrazol-4-yl)phenyl)amino)-5,7-dihydrofuro[3,4-d]pyrimidin-2-yl)phenoxy)-N-(3,3-difluorocyclobutyl)acetamide] was tested, and the IC50 was 101 to 250 nM.
`CC(C)NC(=O)COc1cccc(-c2nc3c(c(Nc4ccc(-c5cn[nH]c5)cc4)n2)CSC3)c1` [Example 84, 2-(3-(4-((4-(1H-pyrazol-4-yl)phenyl)amino)-5,7-dihydrothieno[3,4-d]pyrimidin-2-yl)phenoxy)-N-isopropylacetamide] showed an IC50 of 251 to 500 nM.
Work on `O=C(COc1cccc(-c2nc3c(c(Nc4ccc(-c5cn[nH]c5)cc4)n2)CSC3)c1)NC1CCC1` [Example 86, 2-(3-(4-((4-(1H-pyrazol-4-yl)phenyl)amino)-5,7-dihydrothieno[3,4-d]pyrimidin-2-yl)phenoxy)-N-cyclobutylacetamide] yielded an IC50 of 101 to 250 nM.
For `O=C(COc1cccc(-c2nc3c(c(Nc4ccc(-c5cn[nH]c5)cc4)n2)CSC3)c1)NC1CCCC1` [Example 87, 2-(3-(4-((4-(1H-pyrazol-4-yl)phenyl)amino)-5,7-dihydrothieno[3,4-d]pyrimidin-2-yl)phenoxy)-N-cyclopentylacetamide], the IC50 was 101 to 250 nM.
Compound `CCC(CC)NC(=O)COc1cc(F)cc(-c2nc3c(c(Nc4ccc(-c5cn[nH]c5)cc4)n2)COC3)c1` [Example 88, 2-(3-(4-((4-(1H-pyrazol-4-yl)phenyl)amino)-5,7-dihydrofuro[3,4-d]pyrimidin-2-yl)-5-fluorophenoxy)-N-(pentan-3-yl)acetamide] has an IC50 of 501 to 1000 nM.
For `O=C(COc1cccc(-c2nc3c(c(Nc4ccc(-c5cn[nH]c5)cc4)n2)COC3)c1)NC1CCCCC1` [Example 89, 2-(3-(4-((4-(1H-pyrazol-4-yl)phenyl)amino)-5,7-dihydrofuro[3,4-d]pyrimidin-2-yl)phenoxy)-N-cyclohexylacetamide], the IC50 was 10 to 100 nM.
Work on `CC(NC(=O)COc1cccc(-c2nc3c(c(Nc4ccc(-c5cn[nH]c5)cc4)n2)COC3)c1)C(F)(F)F` (centres unmarked) [Example 90, 2-(3-(4-((4-(1H-pyrazol-4-yl)phenyl)amino)-5,7-dihydrofuro[3,4-d]pyrimidin-2-yl)phenoxy)-N-(1,1,1-trifluoropropan-2-yl)acetamide] yielded an IC50 of 10 to 100 nM.
In the case of `Cc1ccc(CNc2cccc(-c3nc4c(c(Nc5ccc(-c6cn[nH]c6)cc5)n3)COC4)c2)cn1` [Example 91, N-(4-(1H-pyrazol-4-yl)phenyl)-2-(3-(((6-methylpyridin-3-yl)methyl)amino)phenyl)-5,7-dihydrofuro[3,4-d]pyrimidin-4-amine], the IC50 is reported as > 1000 nM.
With `Fc1cncc(CNc2cccc(-c3nc4c(c(Nc5ccc(-c6cn[nH]c6)cc5)n3)COC4)c2)c1` [Example 92, N-(4-(1H-pyrazol-4-yl)phenyl)-2-(3-(((5-fluoropyridin-3-yl)methyl)amino)phenyl)-5,7-dihydrofuro[3,4-d]pyrimidin-4-amine] the IC50 was 501 to 1000 nM.
`Clc1cncc(CNc2cccc(-c3nc4c(c(Nc5ccc(-c6cn[nH]c6)cc5)n3)COC4)c2)c1` [Example 93, N-(4-(1H-pyrazol-4-yl)phenyl)-2-(3-(((5-chloropyridin-3-yl)methyl)amino)phenyl)-5,7-dihydrofuro[3,4-d]pyrimidin-4-amine] gave an IC50 of 501 to 1000 nM.
For `Cc1cncc(CNc2cccc(-c3nc4c(c(Nc5ccc(-c6cn[nH]c6)cc5)n3)COC4)c2)c1` [Example 94, N-(4-(1H-pyrazol-4-yl)phenyl)-2-(3-(((5-methylpyridin-3-yl)methyl)amino)phenyl)-5,7-dihydrofuro[3,4-d]pyrimidin-4-amine], the IC50 was 501 to 1000 nM.
In the case of `CC(C)NC(=O)COc1cc(-c2nc3c(c(Nc4ccc(-c5cn[nH]c5)cc4)n2)COC3)ccc1F` [Example 95, 2-(5-(4-((4-(1H-pyrazol-4-yl)phenyl)amino)-5,7-dihydrofuro[3,4-d]pyrimidin-2-yl)-2-fluorophenoxy)-N-isopropylacetamide], the IC50 is reported as > 1000 nM.
With `CC(C)(C)NC(=O)COc1cc(-c2nc3c(c(Nc4ccc(-c5cn[nH]c5)cc4)n2)COC3)ccc1F` [Example 96, 2-(5-(4-((4-(1H-pyrazol-4-yl)phenyl)amino)-5,7-dihydrofuro[3,4-d]pyrimidin-2-yl)-2-fluorophenoxy)-N-(tert-butyl)acetamide] the IC50 was > 1000 nM.
For `CCC(CC)NC(=O)COc1cc(-c2nc3c(c(Nc4ccc(-c5cn[nH]c5)cc4)n2)COC3)ccc1F` [Example 97, 2-(5-(4-((4-(1H-pyrazol-4-yl)phenyl)amino)-5,7-dihydrofuro[3,4-d]pyrimidin-2-yl)-2-fluorophenoxy)-N-(pentan-3-yl)acetamide], the IC50 was > 1000 nM.
`CC(C)NC(=O)COc1cccc(-c2nc3c(c(Nc4ccc(-c5cn[nH]c5)cc4)n2)COCC3)c1` [Example 102, 2-(3-(4-((4-(1H-pyrazol-4-yl)phenyl)amino)-7,8-dihydro-5H-pyrano[4,3-d]pyrimidin-2-yl)phenoxy)-N-isopropylacetamide] was tested, and the IC50 was 10 to 100 nM.
Work on `CCC(C)NC(=O)COc1cccc(-c2nc3c(c(Nc4ccc(-c5cn[nH]c5)cc4)n2)COCC3)c1` (centres unmarked) [Example 103, 2-(3-(4-((4-(1H-pyrazol-4-yl)phenyl)amino)-7,8-dihydro-5H-pyrano[4,3-d]pyrimidin-2-yl)phenoxy)-N-(sec-butyl)acetamide] yielded an IC50 of 10 to 100 nM.
`CC(C)CNC(=O)COc1cccc(-c2nc3c(c(Nc4ccc(-c5cn[nH]c5)cc4)n2)COCC3)c1` [Example 104, 2-(3-(4-((4-(1H-pyrazol-4-yl)phenyl)amino)-7,8-dihydro-5H-pyrano[4,3-d]pyrimidin-2-yl)phenoxy)-N-isobutylacetamide] gave an IC50 of 10 to 100 nM.
`CC(C)(C)CNC(=O)COc1cccc(-c2nc3c(c(Nc4ccc(-c5cn[nH]c5)cc4)n2)COCC3)c1` [Example 105, 2-(3-(4-((4-(1H-pyrazol-4-yl)phenyl)amino)-7,8-dihydro-5H-pyrano[4,3-d]pyrimidin-2-yl)phenoxy)-N-neopentylacetamide] gave an IC50 of 10 to 100 nM.
In the case of `O=C(COc1cccc(-c2nc3c(c(Nc4ccc(-c5cn[nH]c5)cc4)n2)COCC3)c1)NC1CCCC1` [Example 108, 2-(3-(4-((4-(1H-pyrazol-4-yl)phenyl)amino)-7,8-dihydro-5H-pyrano[4,3-d]pyrimidin-2-yl)phenoxy)-N-cyclopentylacetamide], the IC50 is reported as 10 to 100 nM.
`O=C(COc1cccc(-c2nc3c(c(Nc4ccc(-c5cn[nH]c5)cc4)n2)COCC3)c1)NC1CCC1` [Example 109, 2-(3-(4-((4-(1H-pyrazol-4-yl)phenyl)amino)-7,8-dihydro-5H-pyrano[4,3-d]pyrimidin-2-yl)phenoxy)-N-cyclobutylacetamide] was tested, and the IC50 was 10 to 100 nM.
Work on `CC(C)(C)NC(=O)COc1cccc(-c2nc(Nc3ccc(-c4cn[nH]c4)cc3)c3sccc3n2)c1` [Example 110, 2-(3-(4-((4-(1H-pyrazol-4-yl)phenyl)amino)thieno[3,2-d]pyrimidin-2-yl)phenoxy)-N-(tert-butyl)acetamide] yielded an IC50 of 101 to 250 nM.
Compound `CCC(C)(C)NC(=O)COc1cccc(-c2nc(Nc3ccc(-c4cn[nH]c4)cc3)c3sccc3n2)c1` [Example 111, 2-(3-(4-((4-(1H-pyrazol-4-yl)phenyl)amino)thieno[3,2-d]pyrimidin-2-yl)phenoxy)-N-(tert-pentyl)acetamide] has an IC50 of 101 to 250 nM.
With `CC(=O)N1CCc2nc(-c3cccc(OCC(=O)NC(C)C)c3)nc(Nc3ccc(-c4cn[nH]c4)cc3)c2C1` [Example 112, 2-(3-(4-((4-(1H-pyrazol-4-yl)phenyl)amino)-6-acetyl-5,6,7,8-tetrahydropyrido[4,3-d]pyrimidin-2-yl)phenoxy)-N-isopropylacetamide] the IC50 was 101 to 250 nM.
With `CCC(CC)NC(=O)COc1cccc(-c2nc3c(c(Nc4ccc(-c5cn[nH]c5)cc4)n2)CN(C(C)=O)CC3)c1` [Example 113, 2-(3-(4-((4-(1H-pyrazol-4-yl)phenyl)amino)-6-acetyl-5,6,7,8-tetrahydropyrido[4,3-d]pyrimidin-2-yl)phenoxy)-N-(pentan-3-yl)acetamide] the IC50 was 10 to 100 nM.
`CC(=O)N1CCc2nc(-c3cccc(OCC(=O)NC(C)(C)C)c3)nc(Nc3ccc(-c4cn[nH]c4)cc3)c2C1` [Example 114, 2-(3-(4-((4-(1H-pyrazol-4-yl)phenyl)amino)-6-acetyl-5,6,7,8-tetrahydropyrido[4,3-d]pyrimidin-2-yl)phenoxy)-N-(tert-butyl)acetamide] showed an IC50 of 10 to 100 nM.
`CCC(CC)NC(=O)COc1cccc(-c2nc3c(c(Nc4ccc(-c5cn[nH]c5)cc4)n2)CN(CC)CC3)c1` [Example 118, 2-(3-(4-((4-(1H-pyrazol-4-yl)phenyl)amino)-6-ethyl-5,6,7,8-tetrahydropyrido[4,3-d]pyrimidin-2-yl)phenoxy)-N-(pentan-3-yl)acetamide] showed an IC50 of 501 to 1000 nM.
With `CCC(CC)NC(=O)COc1cccc(-c2nc3c(c(Nc4ccc(-c5cn[nH]c5)cc4)n2)CN(C(C)C)CC3)c1` [Example 119, 2-(3-(4-((4-(1H-pyrazol-4-yl)phenyl)amino)-6-isopropyl-5,6,7,8-tetrahydropyrido[4,3-d]pyrimidin-2-yl)phenoxy)-N-(pentan-3-yl)acetamide] the IC50 was 501 to 1000 nM.
